Measured values published in ChEMBL document CHEMBL1201862, “PubChem BioAssay data set” (2004).
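Growth conditions: 96-well plates. Treatment: test compound, 48 hours, 5 concentrations. Analysis: linear interpolation between bracketing concentrations; unreached endpoints set to highest concentration. Here, GI50 denotes the concentration required for 50% inhibition of growth.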 The source made the active and inactive calls. Rule as the data show it: active = GI50 up to about 1.1 µM and inactive = higher.

Assays:
Assay in all cases: DTP human tumour cell line panel, 48 h
COLO 205 = tested on: COLO 205
HCT-116 = tested on: HCT-116
HL-60 = tested on: HL-60
HT-29 = tested on: HT-29
K562 = tested on: K562
KM-20L2 = tested on: KM-20L2
LOX IMVI = tested on: LOX IMVI
M19-MEL = tested on: M19-MEL
MOLT-4 = tested on: MOLT-4
NCI-H460 = tested on: NCI-H460
OVCAR-4 = tested on: OVCAR-4
SF-268 = tested on: SF-268
SF-295 = tested on: SF-295
SF-539 = tested on: SF-539
SW-620 = tested on: SW-620
TK-10 = tested on: TK-10
U-251 = tested on: U-251
UACC-257 = tested on: UACC-257
LXFL 529 = tested on: LXFL 529
MDA-N = tested on: MDA-N

Structure (SMILES)	GI50 (COLO 205)	GI50 (HCT-116)	GI50 (HL-60)	GI50 (HT-29)	GI50 (K562)	GI50 (KM-20L2)	GI50 (LOX IMVI)	GI50 (M19-MEL)	GI50 (MOLT-4)	GI50 (NCI-H460)	GI50 (OVCAR-4)	GI50 (SF-268)	GI50 (SF-295)	GI50 (SF-539)	GI50 (SW-620)	GI50 (TK-10)	GI50 (U-251)	GI50 (UACC-257)	GI50 (LXFL 529)	GI50 (MDA-N)
COC(=O)c1s/c(=N\C(=S)N(C)C)n(-c2ccc(Cl)cc2)c1C(=O)OC	> 100 µM (inactive)	> 100 µM (inactive)	> 100 µM (inactive)	> 100 µM (inactive)	> 100 µM (inactive)	> 100 µM (inactive)	> 100 µM (inactive)	> 100 µM (inactive)	> 100 µM (inactive)	71.8 µM (inactive)	56.4 µM (inactive)	> 100 µM (inactive)	> 100 µM (inactive)	95.5 µM (inactive)	> 100 µM (inactive)	> 100 µM (inactive)	> 100 µM (inactive)	> 100 µM (inactive)		
C[N+](C)(C)C.FC(F)(F)C1(C(F)(F)F)O[SiH-]2(OC(C(F)(F)F)(C(F)(F)F)c3ccccc32)c2ccccc21	20 µM (inactive)			11.2 µM (inactive)	5.87 µM (inactive)	5.24 µM (inactive)		18.2 µM (inactive)	11.7 µM (inactive)	8.97 µM (inactive)	6.47 µM (inactive)		4.81 µM (inactive)	11.9 µM (inactive)	18 µM (inactive)	16.9 µM (inactive)	5.4 µM (inactive)	24.4 µM (inactive)	12.6 µM (inactive)	
Cc1ccc2nc(SCC(=O)N/N=C3\C(=O)Nc4ccccc43)n(-c3ccccc3)c(=O)c2c1	13.4 µM (inactive)	15.1 µM (inactive)	25.5 µM (inactive)	19.4 µM (inactive)	23.7 µM (inactive)		15.6 µM (inactive)		17.6 µM (inactive)	15.6 µM (inactive)	13.2 µM (inactive)	13.7 µM (inactive)	15.8 µM (inactive)	5.7 µM (inactive)	23.6 µM (inactive)	15.5 µM (inactive)	12.3 µM (inactive)	24 µM (inactive)		19 µM (inactive)
CC(=O)OC12c3ccccc3C1CCCC21OCCCO1 (stereo not drawn)	> 100 µM (inactive)	> 100 µM (inactive)		> 100 µM (inactive)	> 100 µM (inactive)	> 100 µM (inactive)	> 100 µM (inactive)	> 100 µM (inactive)	> 100 µM (inactive)	> 100 µM (inactive)	> 100 µM (inactive)	> 100 µM (inactive)	> 100 µM (inactive)	> 100 µM (inactive)	> 100 µM (inactive)	> 100 µM (inactive)	> 100 µM (inactive)	> 100 µM (inactive)	> 100 µM (inactive)	
CC1=C2O[B-](c3ccccc3)(c3ccccc3)[O+]=C2C=CN1	45.1 µM (inactive)	42.6 µM (inactive)	27.4 µM (inactive)	54.7 µM (inactive)	40.4 µM (inactive)	62.1 µM (inactive)	52.4 µM (inactive)	62.4 µM (inactive)	20.2 µM (inactive)	49.9 µM (inactive)	64.7 µM (inactive)		48.2 µM (inactive)		44.9 µM (inactive)	22.6 µM (inactive)	55.6 µM (inactive)	27.7 µM (inactive)		
CN(Cc1ccccc1)C(=NC#N)N(C)Cc1ccccc1	> 100 µM (inactive)	> 100 µM (inactive)		> 100 µM (inactive)		> 100 µM (inactive)	> 100 µM (inactive)	> 100 µM (inactive)		> 100 µM (inactive)	> 100 µM (inactive)	> 100 µM (inactive)	> 100 µM (inactive)	> 100 µM (inactive)	> 100 µM (inactive)	> 100 µM (inactive)	> 100 µM (inactive)	> 100 µM (inactive)	> 100 µM (inactive)	
CN(C)c1nc(N(C)C)nc(N(C)CN(C)c2ccc(Cl)cc2)n1		> 100 µM (inactive)	1.72 µM (inactive)	> 100 µM (inactive)	> 100 µM (inactive)		> 100 µM (inactive)	> 100 µM (inactive)	> 100 µM (inactive)	> 100 µM (inactive)	> 100 µM (inactive)	> 100 µM (inactive)	> 100 µM (inactive)	> 100 µM (inactive)	> 100 µM (inactive)	> 100 µM (inactive)	> 100 µM (inactive)	> 100 µM (inactive)	> 100 µM (inactive)	
CN(C)CCNc1c2ccccc2c2c3c(cccc13)C(=O)N(CCN(C)C)C2=O	0.0755 µM (active)	0.0254 µM (active)	0.229 µM (active)	0.029 µM (active)	0.0522 µM (active)	0.103 µM (active)	0.071 µM (active)		0.0625 µM (active)	0.0448 µM (active)	0.0455 µM (active)	0.22 µM (active)	0.069 µM (active)	0.374 µM (active)	0.0532 µM (active)		0.121 µM (active)	0.49 µM (active)		
